In patent US9079897B2, “Imidazo-pyridine derivatives as activin-like receptor kinase (ALK4 or ALK5) inhibitors” (NOVARTIS AG, priority 2008, dated 2015):

T1: human ALK5 (kinase domain, ALK5 T204D) (Homo sapiens, UniProt P36897, T204D)
T1 construct: The kinase domain of human ALK5 (amino acids 200-503); made in house; host or cells: insect cells (baculovirus expression)
T1 sequence (P36897 200-503 T204D): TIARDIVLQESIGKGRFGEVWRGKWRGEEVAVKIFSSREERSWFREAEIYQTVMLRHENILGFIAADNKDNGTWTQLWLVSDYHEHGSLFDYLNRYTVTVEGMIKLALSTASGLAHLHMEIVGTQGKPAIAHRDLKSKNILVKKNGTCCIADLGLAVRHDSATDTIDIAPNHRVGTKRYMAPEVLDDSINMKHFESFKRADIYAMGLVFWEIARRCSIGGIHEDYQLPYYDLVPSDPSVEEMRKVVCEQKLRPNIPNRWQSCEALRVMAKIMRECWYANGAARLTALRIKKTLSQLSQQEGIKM


Assays:
[1] = molecular target: T1, human ALK5 (kinase domain, ALK5 T204D); assay: ALK5 kinase activity, [33P] phosphate incorporation into casein; assay type: biochemical; conditions: casein substrate
Experimental: The kinase activity of ALK5 is assessed by measuring radiolabelled phosphate [33P] incorporation in to the generic substrate, casein. The kinase domain of human ALK5 (amino acids 200-503) is fused to an N-terminal histidine tag. The kinase activity of ALK5 is rendered constitutive via point mutation at amino acid 204 (threonine to aspartate modification, ALK5 T204D) and the kinase construct is engineered to be expressed from a baculovirus expression construct in insect cells. The purified, recombinantly-expressed histidine-tagged ALK5 T204D protein is dissolved at 5.4 mg/ml in 50 mM Tris-HCl pH 8.0, 150 mM NaCl, 5 mM DTT. ALK5 T204D is dissolved to 2.5 μg/ml in assay buffer (Assay buffer: 20 mM Tris-HCl pH 7.4, 10 mM MgCl2, 2 mM MnCl2) on the day of use.
Test compounds and reference compounds are dissolved in assay buffer without DTT containing 5% (v/v) DMSO. Stock solutions of test and reference compounds are diluted in assay buffer with DTT (1.25 mM) containing 4.5% (v/v) DMSO. 10 μl of test or reference compound are added to the appropriate wells of 96 well U-bottomed plate. Total enzyme activity is determined by measuring ALK5 T204D activity in the absence of ALK5 kinase inhibitor reference compounds. Non-specific binding (NSB) is determined by measuring the activity of ALK5 T204D in the presence of ALK5 kinase inhibitor reference compounds. 10 μl of dephosphorylated casein stock solution (dephosphorylated casein is dissolved in ddH2O at 20 mg/ml) is added per well (200 μg/well final assay concentration). 20 μl of ALK5 T204D (2.5 μg/ml solution) is added per well (50 ng/well final assay concentration). The plates are left to incubate at room temperature for 10 minutes.
10 μl of ATP mix is added to the well to initiate the reaction (0.66 nM [^33P]ATP/1 μM unlabelled ATP/well final assay concentration). The ATP mix is prepared as follows, unlabelled ATP (3 mM) is dissolved in ddH2O and pH adjusted to 7.4. The stock concentration of [^33P]ATP is 10 μCi/μl. The appropriate volume of [^33P]ATP is added to unlabelled ATP solution such that the final assay concentration per well is 0.1 μCi. Following addition of the ATP mix, the plates are incubated at room temperature for 50 minutes. The kinase reaction is terminated by the addition of 50 μL Stop Buffer (20 mM Tris-HCl pH 7.4, 10 mM EDTA).
75 μl/well from the reaction plate is transferred to a Multiscreen-IP plate (MultiScreen-IP plates are prepared by added 50 μL of 70% (v/v) ethanol per well and incubated for 5 minutes at room temperature. The ethanol is removed by aspiration via a MultiScreen HTS Vaccum Manifold unit (Millipore, Cat no: MSVMHT500). The plates are washed twice by adding 200 μl/well ddH2O). The MultiScreen-IP plate is incubated at room temperature for 30 minutes to allowing binding of casein to the plate. The MultiScreen-IP plates are washed three times by adding 200 μl/well 100 mM phosphoric acid solution and the gasket is carefully removed from the back of the MultiScreen-IP plate and the plate dried in the oven for 30 minutes. The MultiScreen-IP plate is backsealed, 50 μL of MICROSCINT™20 is added, then the plates are topsealed and radiolabelled casein detected and quantified on a TOPCOUNT™ plate-reader using the ^33P scintillation protocol.

[2] = tested on: dimethylnitrosamine induced liver fibrosis; conditions: rat, cited from earlier work
[3] = tested on: bleomycin-induced pulmonary fibrosis; conditions: bleomycin-treated rats; cited from earlier work
[4] = given therapeutically, dimethylnitrosamine induced liver fibrosis

Molecule | IC50 [1] | also measured
c1ccc(-c2cc(-c3cn[nH]c3-c3ccccn3)ccn2)cc1 [GW6604] | – | side effects ([2]; 3 weeks treatment): no obvious side effects; inhibition of extracellular matrix deposition [2, 4]: 60%; prevention of death rate [2, 4]: 40%
O[C@H]1CCC[C@H](Nc2ccc3ncn(-c4ccnc(-c5ccc(F)cc5)c4)c3n2)C1 (racemic) [Example 1.9, (1SR, 3SR)-3-{3-[2-(4-Fluorophenyl)-pyridin-4-yl)-3H-imidazo[4,5-b]pyridin-5-ylamino}-cyclohexanol] | 318 nM | –
O[C@H]1CCC[C@@H](Nc2ccc3ncn(-c4ccnc(-c5ccoc5)c4)c3n2)C1 (racemic) [Example 1.5, (1SR, 3RS)-3-[3-(2-Furan-3-yl-pyridin-4-yl)-3H-imidazo[4,5-b]pyridin-5-ylamino]-cyclohexanol] | 6 nM | –
OC1CCC(Nc2ccc3ncn(-c4ccnc(-c5ccoc5)c4)c3n2)CC1 (stereo not shown) [Example 1.1, 4-[3-(2-Furan-3-yl-pyridin-4-yl)-3H-imidazo[4,5-b]pyridin-5-ylamino]-cyclohexanol] | 13 nM | –
follistatin: an antagonist of activin signalling (protein, UniProt P19883 30-344, looked up) Follistatin: GNCWLRQAKNGRCQVLYKTELSKEECCSTGRLSTSWTEEDVNDNTLFKWMIFNGGAPNCIPCKETCENVDCGPGKKCRMNKKNKPRCVCAPDCSNITWKGPVCGLDGKTYRNECALLKARCKEQPELEVQYQGRCKKTCRDVFCPGSSTCVVDQTNNAYCVTCNRICPEPASSEQYLCGNDGVTYSSACHLRKATCLLGRSIGLAYEGKCIKAKSCEDIQCTGGKKCLWDFKVGRGRCSLCDELCPDSKSDEPVCASDNATYASECAMKEAACSSGVLLEVKHSGSCNSISEDTEEEEEDEDQDYSFPISSILEW | – | lung fibrosis [3]: attenuated lung fibrosis; number of macrophages and neutrophils in bronchoalveolar lavage [3]: significantly reduced

The next lines start with results.

IC50 [1] | Molecule | also measured
56 nM | O[C@H]1CCC[C@@H](Nc2ccc3ncn(-c4ccnc(-n5cccn5)c4)c3n2)C1 (racemic) [Example 1.17, (1SR,3RS)-3-[3-(2-Pyrazol-1-yl-pyridine-4-yl)-3H-imidazo[4,5-b]pyridin-5-ylamino]-cyclohexanol] | –
38 nM | Cc1ccn(-c2cc(-n3cnc4ccc(NC5CCCC(O)C5)nc43)ccn2)n1 (stereo not drawn) [Example 1.13, (1SR,3RS)-3-{3-[2-(3-Methyl-pyrazol-1-yl)pyridine-4-yl]-3H-imidzo[4,5-b]pyridin-5-ylamino}-cyclohexanol] | –
